Experimental data from PubChem BioAssay AID212 (DTP/NCI, 2004).
Several values for one entry are separate records, joined by “and”; a condition that tells them apart may be missing. Identical values can stand only once. Inconclusive results are not listed.

System: BDF1 mice, colon carcinoma 38 sc, T/C %
Assay: NCI In Vivo Anticancer Drug Screen. Data for tumor model Colon Carcinoma 38 (subcutaneous) in B6D2F1 (BDF1) mice
Experimental: The antitumor activity of compounds was measured in mice bearing transplantable tumors. Survival or tumor size were measured and the results are expressed as the measurement made in the treated group (T) divided by the measurement made in the vehicle treated control group (C). The tumor model used in this assay is Colon Carcinoma 38 (subcutaneous) in B6D2F1 (BDF1) mice

[1] = endpoint: median tumor weight (est.), dose: 100.0 mg/kg/injection, schedule: Q07DX002 (ip), vehicle: saline with Tween-80, higher = larger tumour

Compound: c1ccc([P+](c2ccccc2)(c2ccccc2)c2ccccc2)cc1
- T/C (endpoint: median tumor weight (est.), dose: 0.75 mg/kg/injection, schedule: Q07DX002 (ip), vehicle: saline, higher = larger tumour): 91 % of control
- T/C (endpoint: median tumor weight (est.), dose: 0.75 mg/kg/injection, schedule: Q07DX003 (ip), vehicle: saline, higher = larger tumour): 84 % of control
- T/C (endpoint: median tumor weight (est.), dose: 1.5 mg/kg/injection, schedule: Q07DX002 (ip), vehicle: saline, higher = larger tumour): 95 % of control
- T/C (endpoint: median tumor weight (est.), dose: 1.5 mg/kg/injection, schedule: Q07DX003 (ip), vehicle: saline, higher = larger tumour): 83 % of control
- T/C (endpoint: median tumor weight (est.), dose: 3.0 mg/kg/injection, schedule: Q07DX002 (ip), vehicle: saline, higher = larger tumour): 77 % of control
- T/C (endpoint: median tumor weight (est.), dose: 3.0 mg/kg/injection, schedule: Q07DX003 (ip), vehicle: saline, higher = larger tumour): 69 % of control
- T/C (endpoint: median tumor weight (est.), dose: 6.0 mg/kg/injection, schedule: Q07DX002 (ip), vehicle: saline, higher = larger tumour): 112 % of control
- T/C (endpoint: median tumor weight (est.), dose: 6.0 mg/kg/injection, schedule: Q07DX003 (ip), vehicle: saline, higher = larger tumour): 66 % of control

Compound: N[C@H](C(=O)O)[C@@H]1CC(Cl)=NO1
- T/C (endpoint: median survival time, dose: 25.9 mg/kg/injection, schedule: Q04DX002 (ip), vehicle: suspension in saline, higher = longer survival): 113 % of control
- T/C (endpoint: median survival time, dose: 43.2 mg/kg/injection, schedule: Q04DX002 (ip), vehicle: suspension in saline, higher = longer survival): 122 % of control
- T/C (endpoint: median survival time, dose: 72.0 mg/kg/injection, schedule: Q04DX002 (ip), vehicle: suspension in saline, higher = longer survival): 114 % of control
- T/C (endpoint: median survival time, dose: 200.0 mg/kg/injection, schedule: Q04DX002 (ip), vehicle: suspension in saline, higher = longer survival): 119 % of control
- T/C (endpoint: median tumor weight (est.), dose: 1.0 mg/kg/injection, schedule: Q07DX003 (ip), vehicle: saline, higher = larger tumour): 114 % of control
- T/C (endpoint: median tumor weight (est.), dose: 2.0 mg/kg/injection, schedule: Q07DX003 (ip), vehicle: saline, higher = larger tumour): 71 % of control and 79 % of control
- T/C (endpoint: median tumor weight (est.), dose: 4.0 mg/kg/injection, schedule: Q07DX003 (ip), vehicle: saline, higher = larger tumour): 86 % of control
- T/C (endpoint: median tumor weight (est.), dose: 8.0 mg/kg/injection, schedule: Q07DX003 (ip), vehicle: saline, higher = larger tumour): 156 % of control
- T/C (endpoint: median tumor weight (est.), dose: 16.0 mg/kg/injection, schedule: Q07DX003 (ip), vehicle: saline, higher = larger tumour): 69 % of control
- T/C (endpoint: median tumor weight (est.), dose: 32.0 mg/kg/injection, schedule: Q07DX003 (ip), vehicle: saline, higher = larger tumour): 69 % of control
- T/C (endpoint: median tumor weight (est.), dose: 64.0 mg/kg/injection, schedule: Q07DX003 (ip), vehicle: saline, higher = larger tumour): 78 % of control

Compound: O=C1CN(CCN2CC(=O)N(CN3CCOCC3)C(=O)C2)CC(=O)N1CN1CCOCC1
- T/C (endpoint: median tumor weight (est.), dose: 12.5 mg/kg/injection, schedule: Q07DX002 (ip), vehicle: water, higher = larger tumour): 168 % of control
- T/C (endpoint: median tumor weight (est.), dose: 25.0 mg/kg/injection, schedule: Q07DX002 (ip), vehicle: water, higher = larger tumour): 158 % of control
- T/C (endpoint: median tumor weight (est.), dose: 50.0 mg/kg/injection, schedule: Q07DX002 (ip), vehicle: water, higher = larger tumour): 36 % of control
- T/C (endpoint: median tumor weight (est.), dose: 100.0 mg/kg/injection, schedule: Q07DX002 (ip), vehicle: water, higher = larger tumour): 113 % of control and 90 % of control
- T/C (endpoint: median tumor weight (est.), dose: 200.0 mg/kg/injection, schedule: Q07DX002 (ip), vehicle: water, higher = larger tumour): 57 % of control

Compound: C[CH2][Pb]([CH2]C)([CH2]C)[O]C(=O)COc1ccccc1
- T/C (endpoint: median tumor weight (est.), dose: 0.75 mg/kg/injection, schedule: Q07DX002 (ip), vehicle: Klucel (hydroxypropylcellulose) (HPC), higher = larger tumour): 166 % of control
- T/C (endpoint: median tumor weight (est.), dose: 3.0 mg/kg/injection, schedule: Q07DX002 (ip), vehicle: Klucel (hydroxypropylcellulose) (HPC), higher = larger tumour): 151 % of control
- T/C (endpoint: median tumor weight (est.), dose: 6.0 mg/kg/injection, schedule: Q07DX002 (ip), vehicle: Klucel (hydroxypropylcellulose) (HPC), higher = larger tumour): 118 % of control
- T/C (endpoint: median tumor weight (est.), dose: 12.0 mg/kg/injection, schedule: Q07DX002 (ip), vehicle: Klucel (hydroxypropylcellulose) (HPC), higher = larger tumour): 176 % of control

Compound: CC(=O)C(=O)O.CC(=O)C(=O)O.[NH-]C1CCCCC1[NH-].[Pt+2] (stereo not drawn)
- T/C (endpoint: median tumor weight (est.), dose: 25.0 mg/kg/injection, schedule: Q07DX002 (ip), vehicle: dextrose, higher = larger tumour): 96 % of control
- T/C (endpoint: median tumor weight (est.), dose: 50.0 mg/kg/injection, schedule: Q07DX002 (ip), vehicle: dextrose, higher = larger tumour): 44 % of control

Compound: O=C1OCC2C(=O)OCC12 (stereo not drawn)
- T/C (endpoint: median tumor weight (est.), dose: 25.0 mg/kg/injection, schedule: Q07DX002 (ip), vehicle: saline with Tween-80, higher = larger tumour): 103 % of control
- T/C [1]: 46 % of control
- T/C (endpoint: median tumor weight (est.), dose: 200.0 mg/kg/injection, schedule: Q07DX002 (ip), vehicle: saline with Tween-80, higher = larger tumour): 120 % of control
- T/C (endpoint: median tumor weight (est.), dose: 400.0 mg/kg/injection, schedule: Q07DX002 (ip), vehicle: saline with Tween-80, higher = larger tumour): 69 % of control

Compound: CCc1nc(N)nc(N)c1-c1ccc(Cl)c([N+](=O)[O-])c1
- T/C (endpoint: median tumor weight (est.), dose: 3.12 mg/kg/injection, schedule: Q07DX002 (ip), vehicle: saline with Tween-80, higher = larger tumour): 70 % of control
- T/C (endpoint: median tumor weight (est.), dose: 6.25 mg/kg/injection, schedule: Q07DX002 (ip), vehicle: saline with Tween-80, higher = larger tumour): 65 % of control and 77 % of control
- T/C (endpoint: median tumor weight (est.), dose: 12.5 mg/kg/injection, schedule: Q07DX002 (ip), vehicle: saline with Tween-80, higher = larger tumour): 97 % of control and 103 % of control
- T/C (endpoint: median tumor weight (est.), dose: 50.0 mg/kg/injection, schedule: Q07DX002 (ip), vehicle: saline with Tween-80, higher = larger tumour): 45 % of control and 62 % of control
- T/C [1]: 52 % of control

Compound: C[C@H](N)C(=O)N[C@@H]1[C@H]2C(=C(O)C[C@@H](O)[C@@H]2O)C(=O)O[C@@H]1C
- T/C (endpoint: median tumor weight (est.), dose: 150.0 mg/kg/injection, schedule: Q07DX002 (ip), vehicle: saline, higher = larger tumour): 65 % of control
- T/C (endpoint: median tumor weight (est.), dose: 300.0 mg/kg/injection, schedule: Q07DX002 (ip), vehicle: saline, higher = larger tumour): 96 % of control
- T/C (endpoint: median tumor weight (est.), dose: 1200.0 mg/kg/injection, schedule: Q07DX002 (ip), vehicle: saline, higher = larger tumour): 90 % of control
- T/C (endpoint: median tumor weight (est.), dose: 2400.0 mg/kg/injection, schedule: Q07DX002 (ip), vehicle: saline, higher = larger tumour): 96 % of control
